The source made the active and inactive calls. No cut-off for these calls is given here.
How the values were obtained:
[1] = Antitumor activity against Bax deficient human HCT116 cells xenografted in immune deficient nude BALB/c mouse assessed as tumor growth inhibition at 5 mg/kg, ip administered every other day for 2 weeks measured after 2 weeks post last dose relative to control; type: functional; settings: HCT-116, ip, 336 h, read-out: TGI
HCT-116 [2] = experiment: Induction of apoptosis in human HCT116 cells assessed as early apoptotic cells at 7.5 uM after 24 hrs by Annexin V-FITC/propidium iodide staining based flow cytometry (reference value: 1.06%); type: functional
Mus musculus [3] = experiment: Hepatotoxicity in immune deficient nude BALB/c mouse xenografted with Bax deficient human HCT116 cells assessed as changes in total protein level at 5 and 10 mg/kg, ip administered every other day for 2 weeks measured during compound dosing; type: toxicity, organism-based, HCT-116; settings: in vivo, 336 h
HCT-116 [4] = experiment: Induction of apoptosis in ATG5 knockdown human HCT116 cells assessed as late apoptotic cells at 5 uM after 24 hrs by Annexin V-FITC/propidium iodide staining based flow cytometry (reference value: 2.01%); type: functional
HCT-116 [5] = experiment: Induction of apoptosis in Bax deficient human HCT116 cells assessed as early apoptotic cells at 15 uM after 24 hrs by Annexin V-FITC/propidium iodide staining based flow cytometry in presence of DTT (reference value: 0.85%); type: functional
HCT-116 [6] = experiment: Induction of apoptosis in human HCT116 cells assessed as late apoptotic cells at 10 uM after 12 hrs by Annexin V-FITC/propidium iodide staining based flow cytometry (reference value: 3.37%); type: functional
SW480 = experiment: Induction of apoptosis in human SW480 cells assessed as apoptotic cells at 10 uM after 24 hrs by Annexin V-FITC/propidium iodide staining based flow cytometry; type: functional, cell-based
HCT-116 [7] = experiment: Induction of apoptosis in human HCT116 cells assessed as increase in BimL expression at 5 uM after 6 to 24 hrs by Western blot analysis; type: functional, cell-based
HCT-116 [8] = experiment: Induction of apoptosis in Bax deficient human HCT116 cells assessed as late apoptotic cells at 15 uM after 24 hrs by Annexin V-FITC/propidium iodide staining based flow cytometry in presence of DTT (reference value: 1.56%); type: functional
HCT-116 [9] = experiment: Induction of apoptosis in human HCT116 cells assessed as changes in Beclin-1 expression at 5 uM after 4 to 12 hrs by Western blot analysis; type: functional, cell-based
HCT-116 [10] = experiment: Induction of apoptosis in human HCT116 cells assessed as late apoptotic cells at 7.5 uM after 24 hrs by Annexin V-FITC/propidium iodide staining based flow cytometry (reference value: 4.54%); type: functional
Mus musculus [11] = experiment: Hepatotoxicity in immune deficient nude BALB/c mouse xenografted with Bax deficient human HCT116 cells assessed as changes in alanine transaminase level in serum at 5 and 10 mg/kg, ip administered every other day for 2 weeks measured during compound dosing; type: toxicity, organism-based, HCT-116; settings: in vivo, 336 h
HCT-116 [12] = experiment: Induction of apoptosis in human HCT116 cells assessed as late apoptotic cells at 5 uM after 24 hrs by Annexin V-FITC/propidium iodide staining based flow cytometry in presence of DTT (reference value: 3.73%); type: functional
HCT-116 [13] = experiment: Induction of apoptosis in human HCT116 cells assessed as ATG5 cleavage by Western blot analysis in presence of chloroquine; type: functional, cell-based
HCT-116 [14] = experiment: Induction of apoptosis in human HCT116 cells assessed as early apoptotic cells at 10 uM after 12 hrs by Annexin V-FITC/propidium iodide staining based flow cytometry (reference value: 1.13%); type: functional
HCT-116 [15] = experiment: Induction of apoptosis in ATG5 scramble human HCT116 cells assessed as late apoptotic cells at 5 uM after 24 hrs by Annexin V-FITC/propidium iodide staining based flow cytometry (reference value: 3.35%); type: functional
HCT-116 [16] = experiment: Induction of apoptosis in human HCT116 cells assessed as late apoptotic cells at 10 uM after 24 hrs by Annexin V-FITC/propidium iodide staining based flow cytometry (reference value: 4.54%); type: functional
HCT-116 [17] = experiment: Induction of apoptosis in Bax deficient human HCT116 cells assessed as early apoptotic cells at 5 uM after 24 hrs by Annexin V-FITC/propidium iodide staining based flow cytometry (reference value: 1.13%); type: functional
HCT-116 [18] = experiment: Induction of apoptosis in human HCT116 cells assessed as ATG5 cleavage at 5 uM after 4 to 12 hrs by Western blot analysis; type: functional, cell-based
HCT-116 [19] = experiment: Induction of apoptosis in human HCT116 cells assessed as increase in mitochondrial superoxide radical after 16 hrs by MitoSOX Red staining based flow cytometry; type: functional, cell-based
HCT-116 [20] = experiment: Induction of apoptosis in Bax deficient human HCT116 cells assessed as early apoptotic cells at 20 uM after 24 hrs by Annexin V-FITC/propidium iodide staining based flow cytometry (reference value: 1.13%); type: functional
HCT-116 [21] = experiment: Induction of apoptosis in human HCT116 cells assessed as late apoptotic cells at 5 uM after 24 hrs by Annexin V-FITC/propidium iodide staining based flow cytometry in presence of NAC (reference value: 3.73%); type: functional
Mus musculus [22] = experiment: Hepatotoxicity in immune deficient nude BALB/c mouse xenografted with human HCT116 cells assessed as changes in total protein level in serum at 5 and 10 mg/kg, ip administered every other day for 2 weeks measured during compound dosing; type: toxicity, organism-based, HCT-116; settings: in vivo, 336 h
HCT-116 [23] = experiment: Induction of apoptosis in human HCT116 cells assessed as viable cells at 5 uM after 24 hrs by Annexin V-FITC/propidium iodide staining based flow cytometry in presence of DTT (reference value: 93.64%); type: functional; settings: HCT-116, 24 h, read-out: Activity
HCT-116 [24] = experiment: Induction of apoptosis in Bax deficient human HCT116 cells assessed as early apoptotic cells at 10 uM after 24 hrs by Annexin V-FITC/propidium iodide staining based flow cytometry (reference value: 1.13%); type: functional
HCT-116 [25] = experiment: Induction of apoptosis in human HCT116 cells assessed as late apoptotic cells at 2.5 uM after 24 hrs by Annexin V-FITC/propidium iodide staining based flow cytometry (reference value: 4.54%); type: functional
Mus musculus [26] = experiment: Toxicity in immune deficient nude BALB/c mouse xenografted with human HCT116 cells assessed as discomfort behavioral changes at 5 and 10 mg/kg, ip administered every other day for 2 weeks measured during compound dosing; type: organism-based, HCT-116; settings: in vivo, 336 h
HCT-116 [27] = experiment: Induction of apoptosis in human HCT116 cells assessed as viable cells at 5 uM after 24 hrs by Annexin V-FITC/propidium iodide staining based flow cytometry (reference value: 93.64%); type: functional; settings: HCT-116, 24 h, read-out: Activity
HCT-116 [28] = experiment: Induction of apoptosis in human HCT116 cells assessed as changes in Bax expression at 5 uM after 6 to 24 hrs by Western blot analysis; type: functional, cell-based
HCT-116 [29] = experiment: Induction of apoptosis in Bax deficient human HCT116 cells assessed as late apoptotic cells at 15 uM after 24 hrs by Annexin V-FITC/propidium iodide staining based flow cytometry in presence of NAC (reference value: 1.56%); type: functional
HCT-116 [30] = experiment: Induction of apoptosis in human HCT116 cells assessed as caspase activation at 5 uM after 12 hrs by CaspACEFITC-VAD-FMK staining based flow cytometry (reference value: 7.72%); type: functional
HCT-116 [31] = experiment: Induction of apoptosis in human HCT116 cells assessed as increase in total cellular ROS level after 6 hrs by H2DCFDA staining based flow cytometry; type: functional, cell-based

## CO[C@@H]1C(C=O)=CC[C@@H]2C3=C(C(C)C)CC[C@]3(C)CC[C@@]2(C)[C@H]1O
[1]
  inhibition in vivo at 5 mg/kg: 25.8%
HCT-116 [2]
  Activity: 51.38%
Mus musculus [3]
  Activity: Non-toxic
HCT-116 [4]
  Activity: 1.85%
HCT-116 [5]
  Activity: 2.67%
HCT-116 [6]
  Activity: 22.01%
SW480
  Activity: Active
HCT-116 [7]
  Activity: Active
HCT-116 [8]
  Activity: 3.36%
HCT-116 [9]
  Activity: inactive
HCT-116 [10]
  Activity: 20.8%
Mus musculus [11]
  Activity: Non-toxic
HCT-116 [12]
  Activity: 13.34%
HCT-116 [13]
  Activity: inactive
HCT-116 [14]
  Activity: 30.19%
HCT-116 [15]
  Activity: 5.53%
HCT-116 [16]
  Activity: 22.57%
HCT-116 [17]
  Activity: 6.35%
HCT-116 [18]
  Activity: Active
HCT-116 [19]
  Activity: Dose-dependent effect
HCT-116 [20]
  Activity: 56.15%
HCT-116 [21]
  Activity: 6.46%
Mus musculus [22]
  Activity: Non-toxic
HCT-116 [23]
  viability at 5 µM: 80.8%
HCT-116 [24]
  Activity: 44.04%
HCT-116 [25]
  Activity: 7.54%
Mus musculus [26]
  Activity: Non-toxic
HCT-116 [27]
  viability at 5 µM: 56.3%
HCT-116 [28]
  Activity: inactive
HCT-116 [29]
  Activity: 2.07%
HCT-116 [30]
  Activity: 66.85%
HCT-116 [31]
  Activity: Dose-dependent effect
